Test results as given in ChEMBL document CHEMBL1136101, “An evaluation of a C-glucuronide as a liver targeting group: conjugate of a glucocorticoid antagonist” (Bioorg Med Chem Lett, 2003).
pIC50: −log10 of the molar value.

Tests used:
[1] = Plasma concentration at 7 hr after intravenous dosing; assay type: ADME
[2] = Half-life period was determined; assay type: ADME
Glucocorticoid receptor [3] = target: T1, Glucocorticoid receptor (Homo sapiens, UniProt P04150); test: Inhibition of Dexamethasone binding to Glucocorticoid receptor
T1 sequence (P04150 whole entry): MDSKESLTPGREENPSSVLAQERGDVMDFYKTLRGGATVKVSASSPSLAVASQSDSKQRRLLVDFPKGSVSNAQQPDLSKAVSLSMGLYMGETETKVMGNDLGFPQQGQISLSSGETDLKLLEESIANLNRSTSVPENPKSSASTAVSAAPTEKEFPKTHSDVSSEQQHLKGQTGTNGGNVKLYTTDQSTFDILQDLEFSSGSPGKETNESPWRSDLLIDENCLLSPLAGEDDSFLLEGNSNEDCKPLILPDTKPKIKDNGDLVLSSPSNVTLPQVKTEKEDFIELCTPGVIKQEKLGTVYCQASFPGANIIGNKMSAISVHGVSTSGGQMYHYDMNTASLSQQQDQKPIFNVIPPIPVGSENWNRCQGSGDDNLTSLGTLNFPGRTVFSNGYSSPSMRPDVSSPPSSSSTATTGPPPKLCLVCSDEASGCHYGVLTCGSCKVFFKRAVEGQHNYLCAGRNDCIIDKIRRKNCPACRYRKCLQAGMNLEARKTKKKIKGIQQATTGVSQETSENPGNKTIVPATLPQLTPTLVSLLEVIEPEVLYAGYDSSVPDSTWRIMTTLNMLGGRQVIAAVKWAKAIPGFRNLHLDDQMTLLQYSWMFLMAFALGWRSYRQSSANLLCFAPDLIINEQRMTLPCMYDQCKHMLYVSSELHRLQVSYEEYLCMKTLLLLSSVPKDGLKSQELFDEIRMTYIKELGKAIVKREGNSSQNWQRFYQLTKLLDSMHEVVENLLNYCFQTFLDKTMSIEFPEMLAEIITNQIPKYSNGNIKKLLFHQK

Glucocorticoid receptor [4] = target: T1, Glucocorticoid receptor; test: Inhibition of Dexamethasone stimulated transcriptional activity in CHO cells expressing glucocorticoid receptor; assay type: functional, cell-based
Glucocorticoid receptor [5] = target: T2, Glucocorticoid receptor (Rattus norvegicus, UniProt P06536); test: Inhibition of prednisilone-induced tyrosine aminotransferase (TAT) activity in rat hepatocytes; assay type: cell-based, Hepatocyte
T2 sequence (P06536 whole entry): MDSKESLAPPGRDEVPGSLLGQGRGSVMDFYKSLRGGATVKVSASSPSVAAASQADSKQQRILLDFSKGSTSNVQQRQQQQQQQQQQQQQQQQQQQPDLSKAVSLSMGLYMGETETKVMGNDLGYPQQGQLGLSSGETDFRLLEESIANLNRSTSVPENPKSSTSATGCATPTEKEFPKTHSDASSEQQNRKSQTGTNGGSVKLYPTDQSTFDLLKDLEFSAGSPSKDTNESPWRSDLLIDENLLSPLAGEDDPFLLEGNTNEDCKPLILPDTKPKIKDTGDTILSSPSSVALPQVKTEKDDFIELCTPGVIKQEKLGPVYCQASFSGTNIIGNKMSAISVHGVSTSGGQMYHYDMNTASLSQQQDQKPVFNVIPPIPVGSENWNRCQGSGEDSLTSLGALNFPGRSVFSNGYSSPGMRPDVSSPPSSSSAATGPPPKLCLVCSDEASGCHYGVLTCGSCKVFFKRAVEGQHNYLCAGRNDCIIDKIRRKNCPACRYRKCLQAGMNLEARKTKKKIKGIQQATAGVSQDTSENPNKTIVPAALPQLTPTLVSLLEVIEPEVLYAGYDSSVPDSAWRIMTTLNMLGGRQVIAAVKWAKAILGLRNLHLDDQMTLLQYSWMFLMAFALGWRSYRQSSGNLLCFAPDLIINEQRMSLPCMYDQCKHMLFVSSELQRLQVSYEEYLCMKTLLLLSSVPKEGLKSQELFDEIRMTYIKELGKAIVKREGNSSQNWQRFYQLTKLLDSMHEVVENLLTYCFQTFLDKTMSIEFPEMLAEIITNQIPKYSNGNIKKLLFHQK

[6] = Plasma clearance by iv administration at a dose 5 mg/kg; conditions: read-out: Clp (converted)

Compound: CC#C[C@]1(O)CC[C@H]2[C@@H]3CCC4=CC(=O)CCC4=C3[C@@H](c3ccc(N(C)CCCC4OC(C(=O)O)C(O)C(O)C4O)cc3)C[C@@]21C (stereo partly specified)
- concentration at 7 h [1]: 3 ng/mL
- half-life [2]: 1.8 h
- pIC50 (Glucocorticoid receptor [3]): 7.78
- pIC50 (Glucocorticoid receptor [4]): 6.26
- pIC50 (Glucocorticoid receptor [5]): 5.55
- clearance [6]: 88.3 mL/min/kg
